The text below walks through data of paper PMC9226124, “Macrocycle-stabilization of its interaction with 14-3-3 increases plasma membrane localization and activity of CFTR” (Nature Communications, 2022).

Assay [1] has as its target T1, 14-3-3β/CFTRpS753pS768 complex (Homo sapiens, UniProt P13569+P31946).
T1 construct: His6 (cleaved yes); made in house; peptide synthetic
Briefly: Dose-response fluorescence polarization (FP) assay, compound titration. The assay is classed as binding. The note with it: for FP signal: With 14-3-3. On the procedure:
The 14-3-3β concentration used for the FP screening assay was 10 μM (dashed line). c HTS FP assay of the Cyclenium library. The samples contain 100 nM of FITC-CFTR_pS753pS768 peptide, 10 μM 14-3-3β, and 50 μM compound. FC-A (100 µM) was added as a positive control and DMSO as the negative control. Hit compounds are defined as a polarization increase which is higher than 20% of the response of FC-A. Red squares are compounds that appeared positive in the negative control without 14-3-3. […] Background polarization was subtracted from all values, n = 3 technical replicates. Compounds selected for further analysis are indicated with an asterisk. e Polarization in the absence of 14-3-3. […] Source data are provided as a Source Data file. […]
(§1) The FITC-labeled peptides were dissolved in FP buffer (10 mM HEPES pH 7.4, 150 mM NaCl, 0.1% Tween20, 1 mg/mL BSA) to a final concentration of 100 nM or 10 nM. For the dose-response assays, a 14-3-3β concentration of 10 μM was used while titrating the compounds in a two-times dilution series and, for the other assays, a dilution series of 14-3-3β was made with constant concentration of compound. The dilution series were made in 384 Corning Black Round Bottom well plates and their polarization was measured with a Tecan Infinite F500 plate reader (ex. = 485 nm, em. = 535 nm). The method of fitting of the curves was: “log(agonist) vs. response – Variable slope (four parameters)” from GraphPad Prism. The equation is Y = Bottom + (Top-Bottom)/(1 + 10^((LogEC50-X)*HillSlope)).
In general terms: In fluorescence polarisation assays a small probe gives low polarisation when free and higher when bound to something large.

Assay [2] addresses T2, FITC-labeled CFTRpS753pS768 peptide (no 14-3-3) (Homo sapiens, UniProt P13569).
T2 construct: made in house; host or cells: synthetic peptide
Put plainly: Dose-response FP control assay in the absence of 14-3-3. The assay is classed as binding. The settings on record: No 14-3-3. On the procedure: The 14-3-3β concentration used for the FP screening assay was 10 μM (dashed line). c HTS FP assay of the Cyclenium library. The samples contain 100 nM of FITC-CFTR_pS753pS768 peptide, 10 μM 14-3-3β, and 50 μM compound. FC-A (100 µM) was added as a positive control and DMSO as the negative control. Hit compounds are defined as a polarization increase which is higher than 20% of the response of FC-A. Red squares are compounds that appeared positive in the negative control without 14-3-3. […] Background polarization was subtracted from all values, n = 3 technical replicates. Compounds selected for further analysis are indicated with an asterisk. e Polarization in the absence of 14-3-3. […] Source data are provided as a Source Data file.
as §1

The target of assay [3] is T3, F508del-CFTR in BHK cells (Homo sapiens, UniProt P13569, DEL508-508).
T3 construct: expressed in transfected cells; host or cells: baby hamster kidney (BHK) cells
Put plainly: FLIPR membrane potential (FMP) assay. The note with it: BHK cells. The assay is classed as cell-based, hamster. On the procedure:
Twelve (12) validated hit compounds from the initial screening and focused validation library were tested for their effect on F508del-CFTR trafficking. Baby hamster kidney (BHK) cells expressing 3HA-tagged F508del-CFTR were treated for 24 h with 10 μM compound. After fixation of the cells, a combination of mouse monoclonal anti-HA antibody and anti-mouse IgG conjugated with FITC was used to detect F508del-CFTR that had trafficked to the plasma membrane as described previously. […] Additionally, a fluorescence imaging plate reader (FLIPR) Membrane Potential (FMP) assay was performed. This assay measures real-time membrane potential changes associated with ion channel activation and ion transporter proteins. F508del-CFTR expressing BHK cells were incubated for 24 h with 20 μM compound before treatment with the potentiator genistein, FMP dye, and activator forskolin. The fluorescence intensity is thus a measure for the function of the CFTR protein in the plasma membrane of these cells. The F508del-CFTR corrector VX-809 (lumacaftor) and the triple combination Trikafta® were used as positive controls in this assay. […] Another cellular assay was performed with the Ussing Chamber, which detects and quantifies transport of ions across epithelial tissue. F508del-CFTR expressing cystic fibrosis epithelial (CFBE) cells were treated for 18 h with 20 μM CY007424. After forskolin and genistein stimulation, the short-circuit current of the cells was measured.
Fig. 5 Cellular activity of macrocycles stabilizing the 14-3-3/CFTR PPI. a Surface expression of 3HA-tagged F508del-CFTR in BHK cells incubated for 24 h with 10 μM compound and treated with mouse monoclonal anti-HA antibody and anti-mouse IgG conjugated with FITC (n = 4 or n = 3 biological replicates, bars represent the mean). b, c FLIPR Membrane Potential (FMP) assay of F508del-CFTR expressing BHK cells treated for 24 h with the macrocycles (b, n = 6 biological replicates, bars represent the mean) or with CY007424 and/or VX-809 or Trikafta®, with and without CFTR inhibitor INH172 (c, n = 4 biological replicates, bars represent the mean). d Using chamber experiment of F508del-CFTR expressing CFBE cells treated for 18 h with CY007424, VX-809, or Trikafta® or in combinations. CFTR activity is assayed by measurement of short-circuit current of cells after stimulation by forskolin and the potentiator genistein (n = 3 or n = 6 biological replicates, bars represent the mean). Source data are provided as a Source Data file.
The FLuorescence Imaging Plate Reader (FLIPR) Membrane Potential (FMP) assay is based on the technique developed by Van Goor et al.[30] F508del-CFTR expressing baby hamster kidney (BHK) cells were incubated with the compounds for 24 h at 37 °C. The growth medium was removed from the cells by inverting the plate and FMP dye (Molecular Devices, Part #R8042) including the potentiator genistein (Sigma, G6649) was added back in 70 μl of low Cl^- containing buffer (160 mM NaGluconate, 4.5 mM KCl, 2 mM CaCl2, 1 mM MgCl2, 10 mM D-Glucose, 10 mM HEPES (pH7.4)). The plates were incubated for 5 min at RT before activation of CFTR in the plate reader (SynergyMX) with the addition of 14 µL of FMP dye in low Cl^- buffer containing 6x forskolin (Sigma, F6886) following a 2 min baseline read. Fluorescence intensity was monitored for 5 min following CFTR activation. Reported is the rate of fluorescence intensity change over time.

T1 sequence (P31946 whole entry): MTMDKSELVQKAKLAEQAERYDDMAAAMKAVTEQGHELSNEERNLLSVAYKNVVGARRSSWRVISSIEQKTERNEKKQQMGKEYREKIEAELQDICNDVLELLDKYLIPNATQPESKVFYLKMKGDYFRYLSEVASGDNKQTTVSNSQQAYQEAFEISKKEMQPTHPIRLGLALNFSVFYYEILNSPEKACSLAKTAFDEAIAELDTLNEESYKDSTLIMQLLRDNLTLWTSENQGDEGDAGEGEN
T1 sequence (P13569 747-774 limits assumed): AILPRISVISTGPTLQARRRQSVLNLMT
T3 sequence (P13569 with tags, fused parts or gaps DEL508-508): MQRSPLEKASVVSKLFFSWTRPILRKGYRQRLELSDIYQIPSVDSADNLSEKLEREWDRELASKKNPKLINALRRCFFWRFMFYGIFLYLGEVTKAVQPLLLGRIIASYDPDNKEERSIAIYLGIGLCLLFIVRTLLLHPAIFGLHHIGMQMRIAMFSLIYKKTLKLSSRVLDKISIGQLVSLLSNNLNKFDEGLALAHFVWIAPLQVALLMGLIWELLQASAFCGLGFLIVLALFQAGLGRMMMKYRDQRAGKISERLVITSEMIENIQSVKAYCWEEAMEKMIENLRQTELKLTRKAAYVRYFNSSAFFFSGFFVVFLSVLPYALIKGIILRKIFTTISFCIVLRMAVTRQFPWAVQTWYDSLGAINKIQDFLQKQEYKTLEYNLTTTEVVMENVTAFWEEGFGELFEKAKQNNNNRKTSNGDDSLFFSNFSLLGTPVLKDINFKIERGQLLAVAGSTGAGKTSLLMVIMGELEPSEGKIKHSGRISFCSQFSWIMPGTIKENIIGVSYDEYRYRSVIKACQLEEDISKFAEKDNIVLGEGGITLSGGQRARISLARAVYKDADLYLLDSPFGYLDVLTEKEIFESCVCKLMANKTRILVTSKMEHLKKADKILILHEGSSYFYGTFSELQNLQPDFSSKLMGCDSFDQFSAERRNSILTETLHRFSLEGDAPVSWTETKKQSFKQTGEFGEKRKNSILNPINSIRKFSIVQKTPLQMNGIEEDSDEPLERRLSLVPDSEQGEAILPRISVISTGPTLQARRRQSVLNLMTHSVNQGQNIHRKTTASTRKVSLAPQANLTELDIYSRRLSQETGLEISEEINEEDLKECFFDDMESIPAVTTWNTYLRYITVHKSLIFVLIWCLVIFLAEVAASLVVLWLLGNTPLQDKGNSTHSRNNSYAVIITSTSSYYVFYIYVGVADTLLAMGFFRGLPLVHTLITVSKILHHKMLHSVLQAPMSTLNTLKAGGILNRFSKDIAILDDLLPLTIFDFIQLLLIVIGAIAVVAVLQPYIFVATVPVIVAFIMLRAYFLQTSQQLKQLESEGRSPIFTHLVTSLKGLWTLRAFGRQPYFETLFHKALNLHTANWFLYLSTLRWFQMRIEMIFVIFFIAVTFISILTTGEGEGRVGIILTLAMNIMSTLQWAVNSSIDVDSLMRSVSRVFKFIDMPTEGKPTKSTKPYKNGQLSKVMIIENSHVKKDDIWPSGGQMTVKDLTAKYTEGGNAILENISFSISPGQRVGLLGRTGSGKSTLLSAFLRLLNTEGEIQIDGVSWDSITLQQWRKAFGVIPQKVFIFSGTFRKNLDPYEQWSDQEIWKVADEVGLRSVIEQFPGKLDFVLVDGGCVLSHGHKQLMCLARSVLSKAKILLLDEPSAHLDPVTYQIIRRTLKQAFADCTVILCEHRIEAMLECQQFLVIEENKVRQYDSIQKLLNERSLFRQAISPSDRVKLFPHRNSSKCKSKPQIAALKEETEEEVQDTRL

Regarding `N=C(N)NCCCC1NC(=O)C(Cc2ccccc2)NC(=O)C2(CCC(c3ccccc3)CC2)NCc2cccc(c2)-c2ccccc2CNC(=O)C(Cc2c[nH]c3ccccc23)NC1=O` (stereo not shown) [CY007183], the EC50 entry in assay [1] (14-3-3β 10 μM, labeled CFTRpS753pS768 100 nM) was “False positive”. In addition, the FP signal in assay [1] (compound 338.6 pM) was found to be 2; in assay [1] (compound 677.1 pM), 4; in assay [1] (compound 1.35422e-9 M), 3; in assay [1] (compound 2.70843e-9 M) it was 4; in assay [1] (compound 5.41687e-9 M), 4; in assay [1] (compound 1.08337e-8 M), 2. Further, the FP signal in assay [1] (compound 2.16675e-8 M) amounted to 4; in assay [1] (compound 4.3335e-8 M), 3; in assay [1] (compound 8.66699e-8 M) it was 2; in assay [1] (compound 1.7334e-7 M), 4; in assay [1] (compound 3.4668e-7 M), 4; in assay [1] (compound 6.93359e-7 M), 5. Further, the FP signal worked out at 7 in assay [1] (compound 1.38672e-6 M); 8 in assay [1] (compound 2.77344e-6 M); 14 in assay [1] (compound 5.54688e-6 M); 24 in assay [1] (compound 1.10938e-5 M); 49 in assay [1] (compound 2.21875e-5 M); 80 in assay [1] (compound 4.4375e-5 M). Moreover, the FP signal in assay [1] (compound 8.875e-5 M) was 145; in assay [1] (compound 0.0001775 M), 211; in assay [1] (compound 0.000355 M) it was 249; in assay [1] (compound 0.00071 M) it was 275; in assay [2] (compound 338.6 pM), 2; in assay [2] (compound 677.1 pM), 4. Besides, the FP signal in assay [2] (compound 1.35422e-9 M) amounted to 3; in assay [2] (compound 2.70843e-9 M), 4; in assay [2] (compound 5.41687e-9 M), 4; in assay [2] (compound 1.08337e-8 M), 2; in assay [2] (compound 2.16675e-8 M), 4; in assay [2] (compound 4.3335e-8 M), 3. In addition, the FP signal in assay [2] (compound 8.66699e-8 M) is 2; in assay [2] (compound 1.7334e-7 M), 4; in assay [2] (compound 3.4668e-7 M), 4; in assay [2] (compound 6.93359e-7 M), 5; in assay [2] (compound 1.38672e-6 M), 7; in assay [2] (compound 2.77344e-6 M) it was 8. Also, the FP signal stood at 14 in assay [2] (compound 5.54688e-6 M); 24 in assay [2] (compound 1.10938e-5 M); 49 in assay [2] (compound 2.21875e-5 M); 80 in assay [2] (compound 4.4375e-5 M); 145 in assay [2] (compound 8.875e-5 M); 211 in assay [2] (compound 0.0001775 M). The figures for the FP signal in assay [2] (compound 0.000355 M) and in assay [2] (compound 0.00071 M) were 249 and 275, respectively.
With `O=C(O)c1ccc(C=C2SC(=S)N(c3cccc(C(F)(F)F)c3)C2=O)cc1` [INH172, reference compound], the “effect of CFTR inhibitor on signal increases in the FMP assay” value in assay [3] is given as “neutralized”.
